Article PMC12040169 (PLOS Biology, 2025)

test: in vitro; details: human, hela cells, % viability

| SMILES | viability at 28.5 h, 10 µM |
| --- | --- |
| CCOC(=O)N1CCN(S(=O)(=O)c2ccc3oc(=O)ccc3c2)CC1 [CBK305870] | 82.6% |
| O=C(c1cccs1)N1CCN(Cc2cc(=O)n3ccsc3n2)CC1 [CBK305872] | 119% |
| COc1ccccc1CN(C)C(C)C(=O)Nc1ccc(NC(C)=O)cc1 (centres unmarked) [CBK305873] | 100% |
| CCCCn1c(SC(C)C(N)=O)nc2cc(C(=O)OC)ccc2c1=O (centres unmarked) [CBK305877] | 84% |
| CCn1cnnc1CNC(=O)N1CCCN(Cc2cccs2)CC1 [CBK305882] | 97.6% |
| CCOC(=O)N1CCN(Cc2ccc(OCc3cccnc3)cc2)CC1 [CBK305883] | 79.1% |
| CCOC(=O)C1CSCCN1C(=O)c1cc(C)n(-c2nccs2)c1C (centres unmarked) [CBK305884] | 75% |
| Cc1cc(C)n2ncc(C(=O)N3CCCC3c3ccc(F)cc3)c2n1 (centres unmarked) [CBK305885] | 82.9% |
| Cn1nc(C(=O)NCC(c2ccccc2Cl)N2CCOCC2)ccc1=O (centres unmarked) [CBK305886] | 87.3% |
| CCN1CCN(c2ccc(NC(=O)Cc3cn4ccsc4n3)cc2)CC1 [CBK305892] | 81.3% |
| CC1CCc2c(sc3ncnc(OCC(=O)NC4CCCC4)c23)C1 (centres unmarked) [CBK305893] | 83.1% |
| Cc1cc(OCC(=O)N2CCN(c3ccccc3F)CC2)no1 [CBK305898] | 87.1% |
| Cc1cc(NC(=O)N2CCN(c3ncccc3C#N)CC2)no1 [CBK305901] | 80.5% |
| Cc1nc(NC(=O)CN2CCN(c3cccc(Cl)c3)CC2)sc1C [CBK305902] | 88.5% |
| Cn1cccc1C(=O)OCC(=O)N1CCCCC1 [CBK305903] | 99.5% |
| COc1ccc(CNC(=O)c2sccc2S(=O)(=O)N2CCCCC2)cc1 [CBK305904] | 101% |
| Cc1oc(NC(=O)CN2CCN(c3cccc(Cl)c3)CC2)c(C#N)c1C [CBK305906] | 82.5% |
| Cc1oc(NC(=O)CN2CCN(c3ccc(F)cc3)CC2)c(C#N)c1C [CBK305907] | 86.7% |
| Cc1oc(NC(=O)CN2CCN(c3ccccc3Cl)CC2)c(C#N)c1C [CBK305908] | 84.7% |
| COc1ccc(-c2csc(N3CCN(C)CC3)n2)cc1F [CBK305910] | 88.7% |
| CCCn1c(CN2CCOCC2)nc2c1c(=O)n(C)c(=O)n2C [CBK305911] | 103% |
| CC(C)Cn1c(CN2CCOCC2)nc2c1c(=O)n(C)c(=O)n2C [CBK305913] | 91.3% |
| Cc1cccc(OCC(=O)Nc2ncccc2OCCCC#N)c1 [CBK305918] | 90.5% |

| SMILES | viability at 28.5 h, 10 µM |
| --- | --- |
| O=C(CN1CCCN(c2nccs2)CC1)Nc1cc(Cl)ccc1Cl [CBK305921] | 99.7% |
| Cc1c(C(=O)N2CCCC2C(N)=O)nnn1Cc1ccc(F)cc1F (centres unmarked) [CBK305925] | 94.5% |
| FC(F)(F)c1nnc2ccc(N3CCN(Cc4ccsc4)CC3)nn12 [CBK305930] | 88.6% |
| COc1ccc(Cl)cc1CN(C)C(=O)c1ccc[nH]c1=O [CBK305933] | 90.6% |
| CCC1CCC2(CC1)NC(=O)N(CC(=O)Nc1nccs1)C2=O (centres unmarked) [CBK305936] | 95.9% |
| Cc1noc(C)c1CCC(=O)NCc1cccc(C#N)c1 [CBK305938] | 108% |
| Cc1ccc(-c2nn(CCC#N)cc2C(=O)N2CCOCC2)cc1C [CBK305940] | 96.7% |
| CCN(CC)C(=O)c1cn(CCC#N)nc1-c1cccc(OC)c1 [CBK305941] | 92.6% |
| CCCC(=O)Nc1ccc(OCc2nnc(C)o2)c(C(C)=O)c1 [CBK305943] | 92.9% |
| CC1CCc2c(sc3ncnc(NCCCN4CCCCCC4=O)c23)C1 (centres unmarked) [CBK305947] | 85.4% |
| O=C(Cn1cccnc1=O)NCc1cccnc1OCC(F)(F)F [CBK305949] | 109% |
| Cc1cc(Br)ccc1C(=O)N1CC(C(N)=O)CCC1C (centres unmarked) [CBK305954] | 83.2% |
| CN(C)C(=O)c1cccc(CNc2ncnc3c2cnn3CCC#N)c1 [CBK305955] | 88.3% |
| CC1CN(c2ccc(CNc3ncccc3C#N)cn2)CCO1 (centres unmarked) [CBK305957] | 99.5% |
| CC(Sc1nc2ccc(F)cc2c(=O)[nH]1)C(=O)N1CCOCC1 (centres unmarked) [CBK305958] | 108% |
| OCCn1ncc2c(Nc3cccc(Cn4cncn4)c3)ncnc21 [CBK305965] | 115% |
| CCc1ccc(NC(=O)CN(CCO)Cc2cc(Br)ccc2F)cc1 [CBK305968] | 84.8% |
| COc1ccc(C)cc1-n1ccc(C(=O)N2CCSCC2)n1 [CBK305972] | 96.5% |
| Cc1ccc(-c2nn(CCC#N)cc2C(=O)N2CCCC2)cc1C [CBK305974] | 86.8% |
| CC(=O)N(C)Cc1cccc(Nc2ncnc3c2cnn3CCO)c1 [CBK305979] | 96.1% |
| O=C(NCCN1CCCCC1)C1CC(=O)N(CCc2ccccc2)C1 (centres unmarked) [CBK305986] | 91.7% |
| CS(=O)(=O)N1CCC(Nc2nc(-c3cccs3)nc3ccccc23)CC1 [CBK305987] | 87.3% |
| COC(=O)C(C)(C)NC(=O)c1ccn(-c2cc(C)ccc2OC)n1 [CBK305989] | 107% |

| SMILES | viability at 28.5 h, 10 µM |
| --- | --- |
| O=C(CN1CCC(NC(=O)c2cccs2)CC1)Nc1ccc(F)c(F)c1 [CBK305991] | 83.8% |
| CCN(CC(C)C#N)C(=O)c1cc2ccccc2oc1=O (centres unmarked) [CBK305992] | 87.8% |
| CCOc1ccc2c(c1)CN(CC(=O)Nc1cc(C)no1)CC2 [CBK305993] | 92.9% |
| CC(C)Cc1noc(CN2CCC(C(=O)NCc3ccco3)CC2)n1 [CBK305995] | 107% |
| CC(=O)Nc1cccc(-n2nnnc2SC2CCCC2)c1 [CBK305996] | 95.3% |
| O=C(CN1CCC(NC(=O)c2cccs2)CC1)Nc1cc(F)ccc1F [CBK305997] | 102% |
| Cc1noc(C)c1CN1CCC(c2ccccc2)CC1 [CBK306001] | 89.9% |
| N#Cc1ccc(OCC(=O)Nc2cccnc2-n2cncn2)cc1 [CBK306004] | 85.9% |
| CCOC(=O)CN1CCN(c2cc(C#N)ccn2)CC1 [CBK306006] | 89.3% |
| CCOC(=O)c1cc2cc(NC(=O)N(CCO)C3CC3)ccc2s1 [CBK306007] | 87.6% |
| Cc1nnc(CCNC(=O)c2cccc(C#N)c2)n1C [CBK306017] | 85.4% |
| Cc1cc(N2CCOC(c3nc(C)n[nH]3)C2)c2ccc(F)c(F)c2n1 (centres unmarked) [CBK306018] | 92.2% |
| CCN(CCO)C(=O)C(C)Oc1cc(C)ccc1Cl (centres unmarked) [CBK306019] | 86.6% |
| CCNS(=O)(=O)c1ccc2c(c1)N(Cc1cccnc1C)CC2 [CBK306020] | 92.1% |
| CCOc1ccc(NC(=O)CCc2ncc(C(C)(C)C)o2)c(C)c1 [CBK306021] | 104% |
| CSc1nnc(CCCNC(=O)c2cccc(C#N)c2)n1CC(C)C [CBK306023] | 108% |
| CC(=O)C(C)n1c(=O)c2c(nc3oc(C(C)(C)C)cn32)n(C)c1=O (centres unmarked) [CBK306027] | 91.1% |
| COC(=O)Cn1c(=O)c2c(nc3oc(C(C)(C)C)cn32)n(C)c1=O [CBK306029] | 84.5% |
| Cn1ccc(NC(=O)c2cccc(S(=O)(=O)N3CCCC3)c2)n1 [CBK306032] | 104% |
| COC(=O)CCn1c(=O)c2c(nc3oc(C)c(C)n32)n(C)c1=O [CBK306033] | 109% |
| CCn1c(SCC(=O)NC(=O)NC2CCCCC2)nc2ccccc21 [CBK306037] | 93.6% |
| O=C1CN(Cc2nc(-c3cccc(C(F)(F)F)c3)no2)CCN1 [CBK306038] | 92.9% |
| CC(=O)Nc1cccc(C(=O)OCC(=O)c2cccs2)c1 [CBK306040] | 105% |

| SMILES | viability at 28.5 h, 10 µM |
| --- | --- |
| COC(=O)c1ccc2c(=O)n(CC3CCCO3)c(SCCO)nc2c1 (centres unmarked) [CBK306041] | 109% |
| COC(=O)c1ccc2c(=O)n(CC(C)C)c(SC)nc2c1 [CBK306042] | 81.3% |
| Cc1nn(-c2ccccc2)c(Cl)c1CN1C(=O)NC2(CCCCC2)C1=O [CBK306043] | 83.8% |
| COC(=O)c1sc2[nH]c(CN(C)Cc3ccco3)nc(=O)c2c1C [CBK306047] | 82.6% |
| O=C(NCC(=O)N1CCc2ccccc2C1)C1CCCCC1 [CBK306049] | 107% |
| Cc1cc(C(=O)CSc2nnc(N3CCCC3)n2C2CC2)c(C)n1C [CBK306051] | 65.1% |
| Cc1nn(C)c(C)c1NC(=O)CN1CCN(c2cccc(Cl)c2)CC1 [CBK306052] | 81.1% |
| CC1CCCN(Cc2nc3c([nH]2)c(=O)n(C)c(=O)n3C)C1 (centres unmarked) [CBK306054] | 88.7% |
| Cc1nc(CN2CCN(c3ccc4nnnn4n3)CC2)cs1 [CBK306056] | 79.3% |
| Cc1nn(C)c(C)c1NC(=O)CN1CCN(c2ccccc2Cl)CC1 [CBK306058] | 82.6% |
| CC(=O)C(C)n1c(CN2CCCC(C)C2)nc2c1c(=O)n(C)c(=O)n2C (centres unmarked) [CBK306061] | 88.2% |
| COCCn1c(CN2CCCC(C)C2)nc2c1c(=O)n(C)c(=O)n2C (centres unmarked) [CBK306063] | 108% |
| Cc1cc(C(=O)N2CCc3c(sc4ncnc(N)c34)C2)on1 [CBK306067] | 85.1% |
| O=C(CCc1nc2sc3c(c2c(=O)[nH]1)CCCC3)N1CCCC1 [CBK306069] | 90.8% |
| CCN(CC(=O)NCc1ccc(F)cc1)S(=O)(=O)c1c(C)n[nH]c1C [CBK306074] | 93.3% |
| CN(C(=O)CCc1nc2sc3c(c2c(=O)[nH]1)CCCC3)C1CCCCC1 [CBK306075] | 88.2% |
| COc1ccc(CC(=O)NC(CCSC)c2nnc3ccccn23)cc1 (centres unmarked) [CBK306077] | 96% |
| CC1CCc2c(sc3ncnc(NCC(=O)N4CCCC4)c23)C1 (centres unmarked) [CBK306079] | 103% |
| Cc1cc(NC(=O)Cc2cn3ccsc3n2)ccc1N1CCCC1 [CBK306080] | 79.8% |
| CS(=O)(=O)NC1CCN(S(=O)(=O)c2cc(Cl)cc(Cl)c2)CC1 [CBK306082] | 84.3% |
| Cc1nc2nc(N)nn2c(C)c1CCC(=O)OCc1cccc(C#N)c1 [CBK306083] | 88.1% |
| CCOCCCn1c(SC(C)C#N)nc2ccc(Br)cc2c1=O (centres unmarked) [CBK306084] | 85.7% |
| CC1CCCCN1C(=O)CCc1nc2sc3c(c2c(=O)[nH]1)CCCC3 (centres unmarked) [CBK306086] | 112% |
